Measured values: US12036197B2, “Composition for improving bioavailability of drugs” (priority 2019, dated 2024)
Where two headings read alike, the source gives them in different places.

Legend:
[1] = rat, in vivo
[2] = design: species or system SD rats; details: rat, in vivo
Source text: Laboratory Animals: Adult Male SD Rats.
The plasma was collected and subjected to quick freezing.

bioavailability [1] | bioavailability [2] | SMILES
1.66% |  | CC[C@H](C)[C@H](NC(=O)[C@H](CO)NC(=O)[C@H](CCCCN)NC(=O)CNC(=O)[C@H](CCCCN)NC(=O)[C@H](CC(=O)O)NC(=O)[C@H](Cc1cnc[nH]1)NC(=O)[C@H](CC(C)C)NC(=O)[C@H](CC(C)C)NC(=O)[C@H](CCC(N)=O)NC(=O)[C@H](Cc1cnc[nH]1)NC(=O)[C@H](CCC(=O)O)NC(=O)[C@H](CO)NC(=O)[C@@H](NC(=O)[C@H](C)N)C(C)C)C(=O)N[C@@H](CCC(N)=O)C(=O)N[C@@H](CC(=O)O)C(=O)N[C@@H](CC(C)C)C(=O)N[C@@H](CCCNC(=N)N)C(=O)N[C@@H](CCCNC(=N)N)C(=O)N[C@@H](CCCNC(=N)N)C(=O)N[C@@H](CCC(=O)O)C(=O)N[C@@H](CC(C)C)C(=O)N[C@@H](CC(C)C)C(=O)N[C@@H](CCC(=O)O)C(=O)N[C@@H](CCCCN)C(=O)N[C@@H](CC(C)C)C(=O)N[C@@H](CC(C)C)C(=O)NC(C)(C)C(=O)N[C@@H](CCCCN)C(=O)N[C@@H](CC(C)C)C(=O)N[C@@H](Cc1cnc[nH]1)C(=O)N[C@H](C(=O)N[C@@H](C)C(N)=O)[C@@H](C)O [Abaloparatide]
 | 1.22% | CC[C@H](C)[C@@H]1NC(=O)[C@H](CCCNC(=N)N)NC(=O)[C@H](CC(=O)O)NC(=O)[C@H](CCSC)NC(=O)[C@H](CCCCN)NC(=O)[C@H](CCCNC(=N)N)NC(=O)CNC(=O)[C@H](Cc2ccccc2)NC(=O)[C@@H](NC(=O)CNC(=O)[C@H](CO)NC(=O)CNC(=O)[C@H](CCC(N)=O)NC(=O)[C@@H](NC(=O)[C@H](CCSC)NC(=O)[C@H](CCCCN)NC(=O)[C@@H]2CCCN2C(=O)[C@@H](N)CO)C(C)C)CSSC[C@@H](C(=O)N[C@@H](CCCCN)C(=O)N[C@H](C(=O)N[C@@H](CC(C)C)C(=O)N[C@@H](CCCN=C(N)N)C(=O)N[C@@H](CCCN=C(N)N)C(=O)N[C@@H](Cc2cnc[nH]2)C(=O)O)C(C)C)NC(=O)CNC(=O)[C@H](CC(C)C)NC(=O)CNC(=O)[C@H](CO)NC(=O)[C@H](CO)NC(=O)[C@H](CO)NC(=O)[C@H](CO)NC1=O [Nesiritide]
